Assay: refractive index (Na D-line) (dimensionless); xn = mol fraction of the nth substance listed
Details: 101 kPa, Liquid, Standard Abbe refractometry

CC(O)CN (stereo not given) [1-amino-2-propanol] + CCC(C)O
refractive index
Details	288.15 K	293.15 K	298.15 K	303.15 K	308.15 K	313.15 K	318.15 K	323.15 K	328.15 K	333.15 K
x1 = 0.1003	1.4039	1.4018	1.3996	1.3974	1.3952	1.3929	1.3905	1.3881	1.3857	1.3832
x1 = 0.2005	1.4082	1.4062	1.404	1.4019	1.3996	1.3974	1.3951	1.3928	1.3905	1.3881
x1 = 0.3	1.4128	1.4107	1.4086	1.4065	1.4043	1.4021	1.3999	1.3977	1.3955	1.3932
x1 = 0.3999	1.4177	1.4156	1.4135	1.4114	1.4093	1.4071	1.4049	1.4028	1.4006	1.3983
x1 = 0.5	1.4228	1.4207	1.4186	1.4165	1.4144	1.4123	1.4102	1.408	1.4059	1.4036
x1 = 0.6001	1.428	1.4259	1.4239	1.4218	1.4197	1.4176	1.4154	1.4133	1.4112	1.409
x1 = 0.7	1.4332	1.4312	1.4292	1.4271	1.425	1.4229	1.4208	1.4187	1.4166	1.4144
x1 = 0.8	1.4386	1.4366	1.4345	1.4325	1.4304	1.4284	1.4263	1.4242	1.4221	1.42
x1 = 0.8999	1.4442	1.4422	1.4402	1.4382	1.4362	1.4342	1.4322	1.4302	1.4281	1.426
x1 = 1	1.45	1.448	1.446	1.444	1.4419	1.4399	1.4378	1.4358	1.4337	1.4315

CC(O)CN (stereo not given) [1-amino-2-propanol] + CCCCO
refractive index
Details	288.15 K	293.15 K	298.15 K	303.15 K	308.15 K	313.15 K	318.15 K	323.15 K	328.15 K	333.15 K
x1 = 0.1	1.4058	1.4038	1.4018	1.3998	1.3977	1.3956	1.3934	1.3913	1.3892	1.387
x1 = 0.2005	1.4104	1.4084	1.4064	1.4043	1.4022	1.4001	1.398	1.3958	1.3937	1.3915
x1 = 0.3	1.4151	1.413	1.411	1.4089	1.4068	1.4047	1.4026	1.4005	1.3983	1.3961
x1 = 0.3999	1.4198	1.4178	1.4157	1.4136	1.4115	1.4094	1.4073	1.4051	1.403	1.4008
x1 = 0.5	1.4246	1.4226	1.4205	1.4184	1.4163	1.4142	1.4121	1.4099	1.4078	1.4056
x1 = 0.6001	1.4295	1.4275	1.4254	1.4234	1.4213	1.4191	1.417	1.4149	1.4128	1.4106
x1 = 0.7	1.4345	1.4324	1.4304	1.4283	1.4262	1.4242	1.4221	1.42	1.4178	1.4156
x1 = 0.8	1.4395	1.4375	1.4354	1.4334	1.4313	1.4292	1.4272	1.425	1.4229	1.4208
x1 = 0.8997	1.4446	1.4426	1.4406	1.4385	1.4365	1.4344	1.4324	1.4303	1.4282	1.426
x1 = 1	1.45	1.448	1.446	1.444	1.4419	1.4399	1.4378	1.4358	1.4337	1.4315
